# In US11679102B2, “Method for inhibiting virus infection and replication” (Chang Gung University, priority 2020, dated 2023):
# How the values were obtained:
# [1] = test system: RD cells; assay: Lipid peroxidation (BODIPY 581/591-C11, flow cytometry) in RSL3-treated RD cells pretreated with ferroptosis inhibitors
# Protocol: (§1) Next, the treated cells and the infected cells were stained by incubating with 1 μM BODIPY™ 581/591-C11 (Invitrogen) at 37° C. for 30 minutes, and then collected using trypsin (Gibco). Thereafter, the stained cells were subjected to centrifugation at 300 g for 10 minutes to remove trypsin and the cell culture media, and then resuspended in 500 μL of fresh PBS. Subsequently, at least 10000 cells per sample were subjected to flow cytometry analysis using Attune NxT flow cytometer (Invitrogen), and FlowJo software was used for viewing and analyzing the thus obtained data. The BODIPY™ 581/591-C11 levels in the control groups (i.e., DMSO-treated cells and mock-infected cells) were set as 100%.
# Wild-type RD cells were seeded in 12-well plates at a concentration of 1×10^5 cells per well. […] Subsequently, the pretreated cells were treated with 1 μM of RSL3 for 36 hours, or the same amount of DMSO serving as control group for comparison purpose.
# Thereafter, these cells were subjected to staining with BODIPY™ 581/591-C11 (Invitrogen) and flow cytometry analysis according to the experimental procedures as described in the preceding sub-section, entitled “A. Determining lipid peroxidation level in virus-infected cells,” of this Example. The BODIPY™ 581/591-C11 levels in the control groups (i.e., DMSO-treated cells and mock-infected cells) were set as 100%.
# [2] = test system: RD-sgACSL4^+/+ and RD-sgACSL4^−/− cells; assay: Lipid peroxidation (BODIPY 581/591-C11) in RSL3-treated RD-sgACSL4+/+ control and RD-sgACSL4−/− knockout cells; details: 1 μM RSL3, 36 hours, FIG. 9 upper panel
# Protocol: Specifically, the RD-sgACSL4^−/− knockout and RD-sgACSL4^+/+ control cells were seeded in 12-well plates at a concentration of 1×10^5 cells per well.
# as §1
# [3] = test system: CV-A6; type: cell-based, Coxsackie virus A6; details: pretreated 1 hour at 0-120 μM, CV-A6 m.o.i. 0.01, 36 h.p.i.; FIG. 12
# [4] = test system: CV-A6; type: cell-based, Coxsackie virus A6; details: pretreated 1 hour with ferrostatin-1 100 μM or troglitazone 20 μM; m.o.i. 0.01; 24, 36, 48 h.p.i.; FIG. 14
# [5] = test system: HCoV-229E; assay: Cell viability of HCoV-229E-infected LLC-MK2 cells (CellTiter96 Aqueous One Solution); type: cell-based, human coronavirus 229E; details: pretreated 1 hour at 0-120 μM, HCoV-229E m.o.i. 0.01, 7 d.p.i.; FIG. 13
# Protocol: Wild-type RD cells and LLC-MK2 cells were seeded at a concentration of 2000 cells per well into respective wells of 96-well plates containing DMEM and 10% FBS. […] Mock-infected RD and LLC-MK2 cells served as control groups. CV-A6-infected and mock-infected RD cells, and HCoV-229E-infected and mock-infected LLC-MK2 cells were subjected to cell viability determination using CellTiter96 Aqueous One Solution Cell Proliferation Assay (Promega).
# [6] = test system: HCoV-OC43; assay: Virus titer of HCoV-OC43 in infected Vero E6 cells (viral plaque assay); details: pretreated 1 hour with ferrostatin-1 40 μM or troglitazone 10 μM; m.o.i. 0.01; 1, 2, 3 d.p.i.; FIG. 15 lower panel
# [7] = test system: HCoV-229E; assay: Virus titer of HCoV-229E in infected LLC-MK2 cells (viral plaque assay); details: pretreated 1 hour with ferrostatin-1 40 μM or troglitazone 10 μM; m.o.i. 0.01; 1, 2, 3 d.p.i.; FIG. 15 upper panel
# [8] = test system: CV-A6-infected RD cells; type: cell-based, human; details: wild-type RD cells pretreated 1 hour with ferrostatin-1 100 μM or troglitazone 20 μM, then CV-A6 m.o.i. 0.01 for 36 hours; vs mock-infected; FIG. 11 lower panel
Compound,"Lipid peroxidation level in RSL3-treated cells compared with DMSO-treated cells ([1]; wild-type RD cells, 1 μM RSL3, 36 hours, FIG. 11)",Induction of lipid peroxidation in cells with normal ACSL4 expression ([2]; RD-sgACSL4^+/+ control cells),Induction of lipid peroxidation in ACSL4 knockout cells ([2]; RD-sgACSL4^−/− knockout cells),Cell viability of CV-A6-infected RD cells [3],Viral yields (virus titer) of CV-A6 in infected RD cells vs DMSO control group [4],Cell viability of HCoV-229E-infected LLC-MK2 cells [5],"RSL3-induced increase in lipid peroxidation level (relative BODIPY 581/591-C11 level) ([1]; wild-type RD cells pretreated 1 hour with ferrostatin-1 100 μM or troglitazone 20 μM, then 1 μM RSL3 for 36 hours, vs DMSO control, FIG. 11 upper panel)",Viral yields (virus titer) of HCoV-OC43 in infected Vero E6 cells vs DMSO control group [6],Viral yields (virus titer) of HCoV-229E in infected LLC-MK2 cells vs DMSO control group [7],CV-A6-induced increase in lipid peroxidation level (relative BODIPY 581/591-C11 level) [8]
COC(=O)c1ccc([C@@H]2c3[nH]c4ccccc4c3C[C@@H](C(=O)OC)N2C(=O)CCl)cc1 [RSL3],significant increase,effectively induce lipid peroxidation,unable to induce lipid peroxidation,,,,,,,
CCOC(=O)c1ccc(NC2CCCCC2)c(N)c1 [ferrostatin-1],,,,increasing cell viability,significantly lower,increasing cell viability,significantly diminished,significantly lower,significantly lower,significantly diminished
